Test results from EP0550775A1, “Cephalosporin derivatives” (F. HOFFMANN-LA ROCHE AG, priority 1992, dated 1993).
Structures can show the parent of a compound that is named as a salt.

Key:
[1] = system: Ps. aeruginosa 18SH; assay: In vitro MIC, Agar Dilution Method; assay type: cell-based; details: Pseudomonas aeruginosa, read-out: MIC
Method: (§1) In vitro activity of the compounds of the present invention was measured by the Minimum Inhibitory Concentration (MIC) in micrograms/ml utilizing the Agar Dilution Method, which is well known in the art, against a variety of gram-negative and gram-positive organisms.

[2] = system: Prot. vulgaris ATCC 6380; assay: In vitro MIC, Agar Dilution Method; assay type: cell-based; details: Proteus vulgaris, ATCC6380, read-out: MIC
Method: as §1

[3] = system: Staph. aureus 753; assay: In vitro MIC, Agar Dilution Method; assay type: cell-based; details: Staphylococcus aureus, read-out: MIC
Method: as §1

[4] = system: Ps. aeruginosa 5712; assay: In vitro MIC, Agar Dilution Method; assay type: cell-based; details: Pseudomonas aeruginosa, read-out: MIC
Method: as §1

[5] = system: Staph. aureus 67; assay: In vitro MIC, Agar Dilution Method; assay type: cell-based; details: Staphylococcus aureus; Staph. aureus 67; agar dilution; read-out: MIC
Method: as §1

[6] = system: Str. pneumoniae 6301; assay: In vitro MIC, Agar Dilution Method; assay type: cell-based; details: Streptococcus pneumoniae; Str. pneumoniae 6301; agar dilution; read-out: MIC
Method: as §1

[7] = system: Str. faecalis ATCC 29212; assay: In vitro MIC, Agar Dilution Method; assay type: cell-based; details: Enterococcus faecalis, ATCC29212; Str. faecalis ATCC 29212; agar dilution; read-out: MIC
Method: as §1

[8] = system: Staph. aureus ATCC 29213; assay: In vitro MIC, Agar Dilution Method; assay type: cell-based; details: Staphylococcus aureus, ATCC29213, read-out: MIC
Method: as §1

[9] = system: Cit. freundi BS-16; assay: In vitro MIC, Agar Dilution Method; assay type: cell-based; details: read-out: MIC
Method: as §1

[10] = system: Str. pyogenes 4; assay: In vitro MIC, Agar Dilution Method; assay type: cell-based; details: Streptococcus pyogenes; Str. pyogenes 4; agar dilution; read-out: MIC
Method: as §1

[11] = system: K. pneumoniae A; assay: In vitro MIC, Agar Dilution Method; assay type: cell-based; details: Klebsiella pneumoniae; K. pneumoniae A; agar dilution; read-out: MIC
Method: as §1

[12] = system: Ser. marcescens SM; assay: In vitro MIC, Agar Dilution Method; assay type: cell-based; details: Serratia marcescens, read-out: MIC
Method: as §1

[13] = system: Staph. aureus 1059B; assay: In vitro MIC, Agar Dilution Method; assay type: cell-based; details: Staphylococcus aureus, read-out: MIC
Method: as §1

[14] = system: Ps. aeruginosa 8780; assay: In vitro MIC, Agar Dilution Method; assay type: cell-based; details: Pseudomonas aeruginosa, read-out: MIC
Method: as §1

[15] = system: Ps. aeruginosa 765; assay: In vitro MIC, Agar Dilution Method; assay type: cell-based; details: Pseudomonas aeruginosa, read-out: MIC
Method: as §1

[16] = system: Staph. aureus Smith; assay: In vitro MIC, Agar Dilution Method; assay type: cell-based; details: Staphylococcus aureus, read-out: MIC
Method: as §1

[17] = system: Prot. mirabilis 90; assay: In vitro MIC, Agar Dilution Method; assay type: cell-based; details: Proteus mirabilis; Prot. mirabilis 90; agar dilution; read-out: MIC
Method: as §1

[18] = system: Prot. vulgaris 1028 BC; assay: In vitro MIC, Agar Dilution Method; assay type: cell-based; details: Proteus vulgaris, read-out: MIC
Method: as §1

[19] = system: Enter. cloacae 5699; assay: In vitro MIC, Agar Dilution Method; assay type: cell-based; details: Enterobacter cloacae; Enter. cloacae 5699; agar dilution; read-out: MIC
Method: as §1

[20] = system: Ser. marcescens 1071; assay: In vitro MIC, Agar Dilution Method; assay type: cell-based; details: Serratia marcescens; Ser. marcescens 1071; agar dilution; read-out: MIC
Method: as §1

[21] = system: Ps. aeruginosa ATCC 27853; assay: In vitro MIC, Agar Dilution Method; assay type: cell-based; details: Pseudomonas aeruginosa, ATCC27853, read-out: MIC
Method: as §1

[22] = system: E. coli TEM-1; assay: microbe, parasite or virus in culture; assay type: cell-based; details: Escherichia coli, agar dilution, read-out: MIC
Method: as §1

[23] = system: E. coli ATCC 25922; assay: microbe, parasite or virus in culture; assay type: cell-based; details: Escherichia coli, ATCC25922, agar dilution, read-out: MIC
Method: as §1

[24] = system: Enter. cloacae P99; assay: microbe, parasite or virus in culture; assay type: cell-based; details: Enterobacter cloacae, agar dilution, read-out: MIC
Method: as §1

[25] = system: E. coli 257; assay: microbe, parasite or virus in culture; assay type: cell-based; details: Escherichia coli, agar dilution, read-out: MIC
Method: as §1

[26] = Chemical stability (half-life) in phosphate buffer by HPLC; assay type: physicochemical; details: pH 7.4, phosphate buffer (pH7.40; 37°C)
Method: Chemical stability (half-life) in phosphate buffer (pH 7.40; 37°C) of some of the compounds of the present invention was determined using high performance liquid chromatography (HPLC). A Hamilton PRP-1 (250 mm x 4.1 mm) column was used with UV detection at 280 nm. The mobile phase used consisted of a 0.01 M solution of tetradecyltrimethylammonium bromide in a mixture of 70% 0.072M phosphate buffer (pH 8.2) and 30% acetonitrile. In some experiments, minor adjustments to the pH and in the acetonitrile concentration were made to improve resolutions.

With `CCN1CCN(C(=O)N[C@@H](C(=O)N[C@@H]2C(=O)N3C(C(=O)O)=C(CN4CCN(c5cc6c(cc5F)c(=O)c(C(=O)O)cn6C5CC5)CC4)CS[C@H]23)c2ccc(O)cc2)C(=O)C1=O` [Compound E, [6R-[6α,7β(R)]]-3-[[4-(3-Carboxy-1-cyclopropyl-6-fluoro-1,4-dihydro-4-oxo-7-quinolinyl)-1-piperazinyl]methyl]-7-[[[[(4-ethyl-2,3-dioxo-1-piperazinyl)carbonyl]amino](4-hydroxyphenyl)acetyl]amino]-8-oxo-5-thia-1-azabicyclo[4.2.0]oct-2-ene-2-carboxylic acid trfluoroacetic acid salt] the MIC [1] was 2000 µg/mL, the MIC [2] was 125 µg/mL and the MIC [3] was 2000 µg/mL. The MIC [4] was 32 mg/mL, the MIC [5] was 16 mg/mL and the MIC [6] was 125 µg/mL. For the same molecule, the MIC [7] was 16 mg/mL, the MIC [8] was 2000 µg/mL and the MIC [9] was 62.5 µg/mL. For the same molecule, the MIC [10] was 125 µg/mL, the MIC [11] was 500 µg/mL and the MIC [12] was 250 µg/mL. It also gave an MIC [13] of 2000 µg/mL, an MIC [14] of 8000 µg/mL and an MIC [15] of 4000 µg/mL. For the same molecule, the MIC [16] was 2000 µg/mL, the MIC [17] was 1000 µg/mL and the MIC [18] was 62.5 µg/mL. It also gave an MIC [19] of 125 µg/mL, an MIC [20] of 250 µg/mL and an MIC [21] of 8000 µg/mL. It also gave an MIC [22] of 31.3 µg/mL, an MIC [23] of no more than 15.7 µg/mL and an MIC [24] of no more than 15.7 µg/mL. The MIC [25] was no more than 15.7 µg/mL and the half-life [26] was 2.5 days.
